Source: patent US20130252983A1, “ACTIVATING PHOSPHORYLATION SITE ON GLUTAMINASE C” (CORNELL UNIVERSITY, priority 2010, published 2013)
Substitutions are numbered along the chain they refer to. “Also recorded” adds a separate entry of the source.

How the values were obtained:
HMECs = test: Growth of normal human mammary epithelial cells; format: cell-based; details: 10 μM, MEGM complete medium, 6 days
SKBR3 cells = test: Soft-agar colony formation, SKBR3; format: cell-based, human; details: 10 μM
Procedure: (§1) FIGS. 2A-G illustrate effects of 968 on the transforming activity of constitutively active Rho GTPases and human breast cancer cells. […] Cells were scored after 14 days and plotted as the percentage of the total number of colonies greater than 50 μm in diameter. Data represent the average of 3 experiments (±s.d.). […] Data represent the average of 3 experiments (±s.d.). […] Data represent the average of 3 experiments (±s.d.). […] After 24 hours at 37° C., the migratory cells were fixed, stained with GIEMSA, and counted. Data represent the average of 3 experiments (±s.d.). […] Data represent the average of 3 experiments (±s.d.). […] Data represent the average of 3 experiments (±s.d.). […] Data represent the average of 3 experiments (±s.d.).

V5-tagged wild-type GAC = molecular target: T1, V5-tagged wild-type GAC (Mus musculus, UniProt D3Z7P3); test: Glutaminase activity of V5-GAC immunoprecipitated from treated Dbl-transformed cells; format: cell-based; details: 10 μM, 48 hours
T1 construct: expressed in transfected cells; host or cells: NIH 3T3 cells (stably expressing Dbl, or parental), transient transfection
T1 sequence (D3Z7P3 55-603 isoform D3Z7P3-2 limits assumed): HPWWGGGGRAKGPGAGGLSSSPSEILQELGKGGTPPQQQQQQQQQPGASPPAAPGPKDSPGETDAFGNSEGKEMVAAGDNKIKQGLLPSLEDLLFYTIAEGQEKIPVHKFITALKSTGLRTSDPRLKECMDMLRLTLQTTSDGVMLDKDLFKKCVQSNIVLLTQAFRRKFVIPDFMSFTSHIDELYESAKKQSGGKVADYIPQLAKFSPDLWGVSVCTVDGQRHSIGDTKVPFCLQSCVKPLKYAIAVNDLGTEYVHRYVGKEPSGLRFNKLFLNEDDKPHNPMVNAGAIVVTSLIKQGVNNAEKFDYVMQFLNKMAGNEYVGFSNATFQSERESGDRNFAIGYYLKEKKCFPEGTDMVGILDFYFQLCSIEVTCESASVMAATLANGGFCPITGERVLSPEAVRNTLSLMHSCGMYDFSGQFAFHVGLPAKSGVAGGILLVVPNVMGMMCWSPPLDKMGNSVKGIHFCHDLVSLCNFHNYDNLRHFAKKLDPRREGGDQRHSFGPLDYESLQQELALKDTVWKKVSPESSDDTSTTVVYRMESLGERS
Source text: FIGS. 4A-E illustrate the role of glutaminase C activity in cellular transformation. […] Data represent the average of 3 experiments (±s.d.). […] Data represent the average of 3 experiments (±s.d.). […] 100% represents the activity measured in untreated Dbl-transformed cells. The data represent the average of 2 experiments. […] 100% represents the activity measured in untreated SKBR3 cells. The data represent the average of 2 experiments. […] Data represent the average of 3 experiments (±s.d.).
NIH 3T3 cells stably expressing oncogenic Dbl were transiently transfected with DNA encoding VS-tagged GAC, and cells were treated with either 968 or BA-968 (10 μM) as indicated for 48 hours. The cells were then harvested and the ectopically expressed GAC was isolated by immunoprecipitation via the V5 tag. The samples were then assayed for glutaminase activity in the absence of phosphate (top panel) and the relative expression levels of V5-GAC was determined by Western blotting using an anti-V5 antibody (bottom panel).
Next the effect of the substitution of an alanine for a serine at amino acid 103 on the enzymatic activity of GAC was examined, as well as its sensitivity to the small molecule, 968. […] Following transfection, the cells were treated for 48 hours with 968 (10 μM) and then harvested. […]

[1] = tested on: NIH 3T3 cells stably expressing Cdc42(F28L), Rac(F28L), RhoC(F30L); test: Growth to high density or in low serum of cells expressing activated Rho GTPase mutants; format: cell-based, mouse; details: 10 μM
Procedure: as §1

MDA-MB231 cells = test: Soft-agar colony formation, MDA-MB231; format: cell-based, human; details: 10 μM
Procedure: as §1

GAC (S103A) = molecular target: T2, GAC (S103A) (Mus musculus, UniProt D3Z7P3, S103A); test: Glutaminase activity of immunoprecipitated GAC (S103A) from treated Dbl-transformed cells; format: cell-based; details: 10 μM, 48 hours
T2 construct: expressed in transfected cells; host or cells: Dbl-transformed NIH 3T3 cells
T2 sequence (D3Z7P3 55-603 isoform D3Z7P3-2 S103A): T1 sequence (D3Z7P3 55-603 isoform D3Z7P3-2 limits assumed) with S49A
Procedure: Next the effect of the substitution of an alanine for a serine at amino acid 103 on the enzymatic activity of GAC was examined, as well as its sensitivity to the small molecule, 968. […] Following transfection, the cells were treated for 48 hours with 968 (10 μM) and then harvested. The different GAC proteins were then isolated by immunoprecipitation and assayed for their glutaminase activity in the absence (i.e., basal activity) and presence of phosphate (FIG. 24). […] Initially, the high glutaminase activity of the GAC (S103A) mutant was surprising as it had been predicted that this phospho-defective mutant should have a reduced enzymatic activity. […] When this hydrogen bond is broken, either by mutating the serine to an alanine or upon the phosphorylation of this serine residue, GAC transitions to an active conformation. […] Thus, Serine 103 plays a critical role in the regulation of the glutaminase activity of GAC.

CN(C)c1ccc(C2Nc3ccc4ccccc4c3C3=C2C(=O)CC(C)(C)C3)cc1Br (centres unmarked) [Compound 968, 5-[3-bromo-4-(dimethylamino)phenyl]-2,2-dimethyl-2,3,5,6-tetrahydrobenzo[a]]
effect on growth of HMECs (HMECs): little effect
colony formation in soft agar (SKBR3 cells): inhibits the ability
basal glutaminase activity of wild-type GAC (V5-tagged wild-type GAC): susceptible to treatment
GA activity of immunoprecipitated V5-GAC (V5-tagged wild-type GAC; absence of phosphate): inhibited; also recorded: effective inhibitors of GAC activity
growth under low serum conditions ([1]; 1% calf serum): blocking their ability
growth to high density ([1]; 10% calf serum, 6 days): blocking their ability
colony formation in soft agar (MDA-MB231 cells): inhibits the ability
glutaminase activity of GAC (S103A) (GAC (S103A)): not affected
